Results from US12258328B2, “6-membered heteroaryl-containing aminopyridine compounds as EGFR inhibitors” (YUHAN CORPORATION, priority 2021, dated 2025).
Like-named read-outs stand apart in the source and are kept apart here.

Experiments:
EGFR L858R/T790M/C797S = EGFR L858R/T790M/C797S (Homo sapiens, UniProt P00533, C797S/L858R/T790M); assay: Biochemical EGFR kinase assay (Lance Ultra TR-FRET), triple mutant L858R/T790M/C797S
Method in brief: (§1)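 Enzyme reactions lasted 1 hour at room temperature with test compounds between 0.003 and 10 μM, followed by 10 mM EDTA quench.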

EGFR del19/T790M/C797S = EGFR del19/T790M/C797S (Homo sapiens, UniProt P00533, C797S/DEL746-750/T790M); assay: Biochemical EGFR kinase assay (Lance Ultra TR-FRET), triple mutant del19/T790M/C797S
Method in brief: as §1

EGFR L858R/C797S = EGFR L858R/C797S (Homo sapiens, UniProt P00533, C797S/L858R); assay: Biochemical EGFR kinase assay (Lance Ultra TR-FRET), double mutant L858R/C797S
Method in brief: as §1

EGFR wildtype = EGFR wildtype (Homo sapiens, UniProt P00533); assay: Biochemical EGFR kinase assay (Lance Ultra TR-FRET), wildtype
Method in brief: as §1

EGFR del19/C797S = EGFR del19/C797S (Homo sapiens, UniProt P00533, C797S/DEL746-750); assay: Biochemical EGFR kinase assay (Lance Ultra TR-FRET), double mutant del19/C797S
Method in brief: as §1

[1] = ATP at Km, read-out: IC50 L858R/T790M/C797S, Km ATP
[2] = ATP at Km, read-out: IC50 del19/T790M/C797S, Km ATP
[3] = ATP at Km, read-out: IC50 L858R/C797S, Km ATP
[4] = ATP at Km, read-out: IC50 WT, Km ATP
[5] = IC50 L858R/T790M/C797S (nM) 100 μM ATP, 100 μM ATP
[6] = Km ATP, read-out: IC50 L858R/T790M/C797S (nM) Km ATP
[7] = IC50 del19/T790M/C797S (nM) 100 μM ATP, 100 μM ATP
[8] = Km ATP, read-out: IC50 del19/T790M/C797S (nM) Km ATP
[9] = IC50 L858R/C797S (nM) 100 μM ATP, 100 μM ATP
[10] = Km ATP, read-out: IC50 L858R/C797S (nM) Km ATP
[11] = IC50 WT (nM) 100 μM ATP, 100 μM ATP
[12] = Km ATP, read-out: IC50 WT (nM) Km ATP
[13] = IC50 del19/C797S (nM) 100 μM ATP, 100 μM ATP
[14] = Km ATP, read-out: IC50 del19/C797S (nM) Km ATP

Sequence of EGFR del19/C797S (P00533 with tags, fused parts or gaps DEL746-750/C797S): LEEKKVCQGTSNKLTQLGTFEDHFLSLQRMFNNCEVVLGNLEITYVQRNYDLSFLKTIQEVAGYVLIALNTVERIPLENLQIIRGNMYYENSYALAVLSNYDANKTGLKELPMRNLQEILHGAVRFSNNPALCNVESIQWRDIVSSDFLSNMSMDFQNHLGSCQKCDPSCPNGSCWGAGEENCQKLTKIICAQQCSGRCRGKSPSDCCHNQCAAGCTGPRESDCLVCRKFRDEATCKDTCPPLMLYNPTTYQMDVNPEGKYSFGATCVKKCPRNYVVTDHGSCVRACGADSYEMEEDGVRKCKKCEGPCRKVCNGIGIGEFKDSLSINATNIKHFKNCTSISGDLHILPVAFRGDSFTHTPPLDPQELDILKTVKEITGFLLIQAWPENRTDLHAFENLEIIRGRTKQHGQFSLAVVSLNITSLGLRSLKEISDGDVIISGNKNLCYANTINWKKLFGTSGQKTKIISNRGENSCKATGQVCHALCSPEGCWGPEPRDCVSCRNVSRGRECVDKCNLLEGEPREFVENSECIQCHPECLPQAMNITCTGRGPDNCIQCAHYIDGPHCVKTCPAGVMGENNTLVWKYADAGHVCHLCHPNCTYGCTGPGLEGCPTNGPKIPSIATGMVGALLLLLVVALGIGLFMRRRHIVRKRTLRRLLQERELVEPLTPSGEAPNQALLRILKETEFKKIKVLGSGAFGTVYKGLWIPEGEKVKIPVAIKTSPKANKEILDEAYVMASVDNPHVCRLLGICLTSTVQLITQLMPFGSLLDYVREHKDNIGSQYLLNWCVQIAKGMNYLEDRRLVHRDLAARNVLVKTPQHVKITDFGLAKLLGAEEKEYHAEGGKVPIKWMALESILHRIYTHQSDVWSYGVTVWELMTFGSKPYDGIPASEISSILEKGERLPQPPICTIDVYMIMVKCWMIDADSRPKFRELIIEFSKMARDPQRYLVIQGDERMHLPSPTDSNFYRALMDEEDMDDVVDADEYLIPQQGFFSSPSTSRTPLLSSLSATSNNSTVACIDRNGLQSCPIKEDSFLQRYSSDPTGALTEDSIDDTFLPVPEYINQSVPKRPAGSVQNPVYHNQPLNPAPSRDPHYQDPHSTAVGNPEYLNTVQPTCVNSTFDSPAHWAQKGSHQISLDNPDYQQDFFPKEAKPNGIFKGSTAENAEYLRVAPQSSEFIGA
Sequence of EGFR del19/T790M/C797S (P00533 with tags, fused parts or gaps DEL746-750/T790M/C797S): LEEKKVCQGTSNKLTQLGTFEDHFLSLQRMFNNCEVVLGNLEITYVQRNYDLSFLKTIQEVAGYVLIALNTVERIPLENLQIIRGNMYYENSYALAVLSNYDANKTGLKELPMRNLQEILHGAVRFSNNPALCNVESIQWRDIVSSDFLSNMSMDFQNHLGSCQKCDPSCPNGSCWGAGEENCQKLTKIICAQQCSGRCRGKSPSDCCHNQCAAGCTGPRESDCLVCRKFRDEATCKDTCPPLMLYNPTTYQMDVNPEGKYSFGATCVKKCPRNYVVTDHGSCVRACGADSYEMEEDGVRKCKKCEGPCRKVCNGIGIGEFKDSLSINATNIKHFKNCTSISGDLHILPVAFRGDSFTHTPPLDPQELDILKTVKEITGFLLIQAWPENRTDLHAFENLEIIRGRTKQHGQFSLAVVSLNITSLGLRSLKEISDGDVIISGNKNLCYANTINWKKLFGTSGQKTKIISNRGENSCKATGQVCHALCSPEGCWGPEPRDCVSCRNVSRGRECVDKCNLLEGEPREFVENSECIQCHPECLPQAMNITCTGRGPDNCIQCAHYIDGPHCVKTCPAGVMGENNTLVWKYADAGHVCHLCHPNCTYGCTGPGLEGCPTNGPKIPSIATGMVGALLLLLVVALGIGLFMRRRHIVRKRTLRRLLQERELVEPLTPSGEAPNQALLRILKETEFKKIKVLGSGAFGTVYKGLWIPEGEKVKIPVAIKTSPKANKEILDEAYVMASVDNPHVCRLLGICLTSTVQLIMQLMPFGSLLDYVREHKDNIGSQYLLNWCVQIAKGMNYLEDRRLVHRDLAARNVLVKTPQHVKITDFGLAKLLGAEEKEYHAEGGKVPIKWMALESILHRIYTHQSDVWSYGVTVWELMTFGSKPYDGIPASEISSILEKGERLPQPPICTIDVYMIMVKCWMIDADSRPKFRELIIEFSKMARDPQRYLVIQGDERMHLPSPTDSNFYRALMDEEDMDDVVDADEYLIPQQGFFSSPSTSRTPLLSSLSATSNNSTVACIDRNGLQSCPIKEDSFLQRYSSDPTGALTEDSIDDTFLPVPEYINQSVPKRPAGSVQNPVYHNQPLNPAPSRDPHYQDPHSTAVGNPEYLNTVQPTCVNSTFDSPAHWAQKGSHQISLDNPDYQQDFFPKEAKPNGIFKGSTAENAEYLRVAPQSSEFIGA
Sequence of EGFR L858R/C797S (P00533 25-1210 C797S/L858R): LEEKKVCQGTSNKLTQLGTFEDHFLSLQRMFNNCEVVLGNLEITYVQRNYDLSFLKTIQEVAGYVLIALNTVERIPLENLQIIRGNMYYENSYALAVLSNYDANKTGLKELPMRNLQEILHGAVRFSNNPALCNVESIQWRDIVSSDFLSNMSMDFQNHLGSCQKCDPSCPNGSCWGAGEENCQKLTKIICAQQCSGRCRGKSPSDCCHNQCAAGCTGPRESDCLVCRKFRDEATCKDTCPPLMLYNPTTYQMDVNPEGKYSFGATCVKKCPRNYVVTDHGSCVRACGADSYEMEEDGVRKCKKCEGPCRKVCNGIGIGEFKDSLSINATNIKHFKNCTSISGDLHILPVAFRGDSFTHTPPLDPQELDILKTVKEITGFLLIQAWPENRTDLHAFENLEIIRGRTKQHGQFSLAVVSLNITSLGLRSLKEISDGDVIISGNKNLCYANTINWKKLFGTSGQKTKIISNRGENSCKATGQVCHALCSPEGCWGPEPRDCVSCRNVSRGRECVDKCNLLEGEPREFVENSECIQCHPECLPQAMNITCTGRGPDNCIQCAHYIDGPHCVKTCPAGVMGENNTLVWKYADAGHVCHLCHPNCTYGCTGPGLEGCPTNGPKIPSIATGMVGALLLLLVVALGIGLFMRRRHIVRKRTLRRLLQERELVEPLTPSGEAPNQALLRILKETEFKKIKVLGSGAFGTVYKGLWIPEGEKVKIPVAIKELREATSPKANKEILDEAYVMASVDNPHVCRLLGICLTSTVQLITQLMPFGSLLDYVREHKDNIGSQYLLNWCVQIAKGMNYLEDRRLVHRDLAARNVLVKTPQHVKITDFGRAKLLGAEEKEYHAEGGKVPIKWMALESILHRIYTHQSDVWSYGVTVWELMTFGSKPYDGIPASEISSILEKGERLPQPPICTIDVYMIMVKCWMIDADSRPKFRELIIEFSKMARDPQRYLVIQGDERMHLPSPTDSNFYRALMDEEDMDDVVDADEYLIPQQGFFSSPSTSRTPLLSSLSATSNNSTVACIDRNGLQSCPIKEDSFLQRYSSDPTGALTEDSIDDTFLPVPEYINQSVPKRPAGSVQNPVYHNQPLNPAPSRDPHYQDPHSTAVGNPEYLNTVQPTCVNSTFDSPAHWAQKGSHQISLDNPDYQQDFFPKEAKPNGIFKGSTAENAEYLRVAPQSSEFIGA
Sequence of EGFR wildtype (P00533 25-1210): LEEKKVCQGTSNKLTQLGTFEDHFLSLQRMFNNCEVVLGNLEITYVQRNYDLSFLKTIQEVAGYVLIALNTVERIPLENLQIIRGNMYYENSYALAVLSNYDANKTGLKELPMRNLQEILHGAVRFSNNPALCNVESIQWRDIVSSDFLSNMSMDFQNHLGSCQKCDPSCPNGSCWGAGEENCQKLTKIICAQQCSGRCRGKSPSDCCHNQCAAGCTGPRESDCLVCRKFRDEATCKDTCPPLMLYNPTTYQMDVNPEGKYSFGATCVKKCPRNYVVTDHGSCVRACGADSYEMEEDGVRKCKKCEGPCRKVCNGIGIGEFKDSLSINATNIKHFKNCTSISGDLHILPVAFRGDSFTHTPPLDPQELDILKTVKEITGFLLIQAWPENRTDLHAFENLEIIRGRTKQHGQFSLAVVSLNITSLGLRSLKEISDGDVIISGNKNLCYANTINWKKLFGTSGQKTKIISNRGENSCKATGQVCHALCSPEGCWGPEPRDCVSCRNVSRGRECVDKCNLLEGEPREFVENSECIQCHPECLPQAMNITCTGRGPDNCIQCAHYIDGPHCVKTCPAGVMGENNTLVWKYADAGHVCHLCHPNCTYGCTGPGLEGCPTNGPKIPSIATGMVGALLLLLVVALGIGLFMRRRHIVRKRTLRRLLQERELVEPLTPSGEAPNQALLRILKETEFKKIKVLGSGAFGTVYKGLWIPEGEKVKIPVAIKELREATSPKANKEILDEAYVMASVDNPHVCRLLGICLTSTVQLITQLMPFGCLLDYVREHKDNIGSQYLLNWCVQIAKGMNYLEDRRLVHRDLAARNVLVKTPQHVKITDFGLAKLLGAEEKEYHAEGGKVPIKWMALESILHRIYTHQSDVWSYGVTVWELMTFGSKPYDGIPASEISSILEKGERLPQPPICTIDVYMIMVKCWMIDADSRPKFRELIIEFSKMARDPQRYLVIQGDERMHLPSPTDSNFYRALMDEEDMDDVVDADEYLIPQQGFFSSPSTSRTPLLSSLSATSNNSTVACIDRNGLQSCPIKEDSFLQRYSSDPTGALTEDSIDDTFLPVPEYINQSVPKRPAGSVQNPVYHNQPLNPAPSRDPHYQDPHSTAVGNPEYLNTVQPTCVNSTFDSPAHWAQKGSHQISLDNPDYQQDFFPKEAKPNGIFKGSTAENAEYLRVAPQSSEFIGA

Row | SMILES | IC50 (EGFR L858R/T790M/C797S; [1]) | IC50 (EGFR L858R/T790M/C797S; IC50 L858R/T790M/C797S, 100 μM ATP) | IC50 (EGFR del19/T790M/C797S; [2]) | IC50 (EGFR del19/T790M/C797S; IC50 del19/T790M/C797S, 100 μM ATP) | IC50 (EGFR L858R/C797S; [3]) | IC50 (EGFR L858R/C797S; IC50 L858R/C797S, 100 μM ATP) | IC50 (EGFR wildtype; [4]) | IC50 (EGFR wildtype; IC50 WT, 100 μM ATP) | IC50 (EGFR del19/C797S; IC50 del19/C797S, 100 μM ATP) | IC50 (EGFR L858R/T790M/C797S; [5]) | IC50 (EGFR L858R/T790M/C797S; [6]) | IC50 (EGFR del19/T790M/C797S; [7]) | IC50 (EGFR del19/T790M/C797S; [8]) | IC50 (EGFR L858R/C797S; [9]) | IC50 (EGFR L858R/C797S; [10]) | IC50 (EGFR wildtype; [11]) | IC50 (EGFR wildtype; [12]) | IC50 (EGFR del19/C797S; [13]) | IC50 (EGFR del19/C797S; [14]) | IC50 (EGFR del19/C797S; ATP at Km, read-out: IC50 del19/C797S, Km ATP)
1 | C[C@]1(O)CC[C@@H](Nc2cc(Nc3ccnc(-c4cnn(S(=O)(=O)C5CC5)c4)n3)ncc2-c2ccc(N3CC(F)(F)C3)nn2)CC1 [Example 66, (1s,4s)-4-((2-((2-(1-(Cyclopropylsulfonyl)-1H-pyrazol-4-yl)pyrimidin-4-yl)amino)-5-(6-(3,3-difluoroazetidin-1-yl)pyridazin-3-yl)pyridin-4-yl)amino)-1-methylcyclohexan-1-ol] |  |  |  |  |  |  |  |  |  | 0.5 nM | 0.1 nM | 0.5 nM | 0.3 nM | 12.2 nM | 0.5 nM | > 10000 nM | 11.5 nM | 0.9 nM | 0.4 nM | 
2 | CN(C)c1ccnc(-c2cnc(Nc3ccnc(-c4cnn(S(=O)(=O)C5CC5)c4)n3)cc2N[C@H]2CC[C@@](C)(O)CC2)n1 [Example 41, (1s,4s)-4-((2-((2-(1-(Cyclopropylsulfonyl)-1H-pyrazol-4-yl)pyrimidin-4-yl)amino)-5-(4-(dimethylamino)pyrimidin-2-yl)pyridin-4-yl)amino)-1-methylcyclohexan-1-ol] |  |  |  |  |  |  |  |  |  | 0.9 nM | 0.2 nM | 0.8 nM | 0.3 nM | 523 nM | 4 nM | > 10000 nM | 43.6 nM | 5.1 nM | 4.5 nM | 
3 | C[C@]1(O)CC[C@@H](Nc2cc(Nc3ccnc(-c4cnn(S(=O)(=O)C5CC5)c4)n3)ncc2-c2ccc(CCC(F)(F)F)cn2)CC1 [Example 263, (1s,4s)-4-((6′-((2-(1-(Cyclopropylsulfonyl)-1H-pyrazol-4-yl)pyrimidin-4-yl)amino)-5-(3,3,3-trifluoropropyl)-[2,3′-bipyridin]-4′-yl)amino)-1-methylcyclohexan-1-ol] | 3.4 nM |  | 8 nM |  | 0.9 nM |  | 14.1 nM |  |  |  |  |  |  |  |  |  |  |  |  | 23.1 nM

The remaining lines, values ahead:

Row | IC50 (EGFR L858R/T790M/C797S; [1]) | IC50 (EGFR L858R/T790M/C797S; IC50 L858R/T790M/C797S, 100 μM ATP) | IC50 (EGFR del19/T790M/C797S; [2]) | IC50 (EGFR del19/T790M/C797S; IC50 del19/T790M/C797S, 100 μM ATP) | IC50 (EGFR L858R/C797S; [3]) | IC50 (EGFR L858R/C797S; IC50 L858R/C797S, 100 μM ATP) | IC50 (EGFR wildtype; [4]) | IC50 (EGFR wildtype; IC50 WT, 100 μM ATP) | IC50 (EGFR del19/C797S; IC50 del19/C797S, 100 μM ATP) | IC50 (EGFR L858R/T790M/C797S; [5]) | IC50 (EGFR L858R/T790M/C797S; [6]) | IC50 (EGFR del19/T790M/C797S; [7]) | IC50 (EGFR del19/T790M/C797S; [8]) | IC50 (EGFR L858R/C797S; [9]) | IC50 (EGFR L858R/C797S; [10]) | IC50 (EGFR wildtype; [11]) | IC50 (EGFR wildtype; [12]) | IC50 (EGFR del19/C797S; [13]) | IC50 (EGFR del19/C797S; [14]) | IC50 (EGFR del19/C797S; ATP at Km, read-out: IC50 del19/C797S, Km ATP) | SMILES
4 | 0.7 nM | 1.8 nM | 2.1 nM | 0.6 nM | 3.6 nM | 59.4 nM | 10.3 nM | > 10000 nM | 7.1 nM |  |  |  |  |  |  |  |  |  |  |  | C[C@]1(O)CC[C@@H](Nc2cc(Nc3ccnc(-c4cnn(S(=O)(=O)C5CC5)c4)n3)ncc2-c2ccc(CC(F)(F)F)cn2)CC1 [Example 218, (1s,4s)-4-((6′-((2-(1-(Cyclopropylsulfonyl)-1H-pyrazol-4-yl)pyrimidin-4-yl)amino)-5-(2,2,2-trifluoroethyl)-[2,3′-bipyridin]-4′-yl)amino)-1-methylcyclohexan-1-ol]
5 |  |  |  |  |  |  |  |  |  | 0.8 nM | 0.9 nM | 1 nM | 2 nM | 14.5 nM | 2.1 nM | > 10000 nM | 8.1 nM | 2 nM | 1.6 nM |  | C[C@]1(O)CC[C@@H](Nc2cc(Nc3ccnc(-c4cnn(S(=O)(=O)C5CC5)c4)n3)ncc2-c2cc(C(F)F)ccn2)CC1 [Example 76, (1s,4s)-4-((6′-((2-(1-(Cyclopropylsulfonyl)-1H-pyrazol-4-yl)pyrimidin-4-yl)amino)-4-(difluoromethyl)-[2,3′-bipyridin]-4′-yl)amino)-1-methylcyclohexan-1-ol]
6 |  |  |  |  |  |  |  |  |  |  | 1.4 nM |  | 2.1 nM |  | 191 nM |  | 189 nM |  | 170 nM |  | C[C@]1(O)CC[C@@H](Nc2cc(Nc3ccnc(-c4cnn(S(=O)(=O)C5CC5)c4)n3)ncc2-c2ncccc2OCC(F)F)CC1 [Example 334, (1s,4s)-4-((6′-((2-(1-(Cyclopropylsulfonyl)-1H-pyrazol-4-yl)pyrimidin-4-yl)amino)-3-(2,2-difluoroethoxy)-[2,3′-bipyridin]-4′-yl)amino)-1-methylcyclohexan-1-ol]
7 |  |  |  |  |  |  |  |  |  | 0.3 nM | 0.1 nM | 0.1 nM | 0.1 nM | 0.9 nM | 0.2 nM | 1170 nM | 2.4 nM | 0.2 nM |  |  | CN(C)Cc1ccnc(-c2cnc(Nc3ccnc(-c4cnn(S(=O)(=O)C5CC5)c4)n3)cc2N[C@H]2CC[C@@](C)(O)CC2)c1 [Example 64, (1s,4s)-4-((6′-((2-(1-(Cyclopropylsulfonyl)-1H-pyrazol-4-yl)pyrimidin-4-yl)amino)-4-((dimethylamino)methyl)-[2,3′-bipyridin]-4′-yl)amino)-1-methylcyclohexan-1-ol]
